Entries after “also recorded” stand apart in the source; their conditions may differ. Where a SMILES comes first, the peptide text is derived from it.

The test system of assay [1] is retinal ganglion cells (RGCs). The assay is described as follows: Dissociated retinal cell culture: survival and neurite outgrowth of prelabeled RGCs. Format: cell-based, mouse. The method, then:
(§1) Primary cultures of dissociated retinal cells were prepared from P2 wild-type or transgenic animals. RGCs were prelabeled by injecting DiI solution (25% in Dimethyl Formamide) into the tectal region bilaterally in P0 pups. Cells were plated in 24-cell wells treated with poly-L-lysine ([…], 4° C. overnight) and coated with Human Merosin ([…], r.t., 2 hr)(Meyer-Franke, A. and Barres, B. A. Neuron 15, 805-819 (1995)). Cultures were maintained for 2 to 3 days in NeuralBasal medium supplemented with B27. Trypan blue staining was used to examine the viability of retinal ganglion cells (RGCs). Retinotectal cocultures prepared from wild-type P2 mice were described previously and ZVAD (Z-Val-Ala-Asp-CH2F, Enzyme Systems Products) was added to the culture medium at the time of plating. Cell death was detected by staining with the fluorescent dye, SYTOX green fluorescent dead cell stain (Molecular Probes). Cultures were visualized under an inverted Nikon microscope equipped with Nomarski and epifluorescence illumination.
Whether these two activities of neurons, survival and axonal growth, can be separated in vitro was next examined. […]

A further assay relates to retinal explants (RGCs). The assay is described as follows: Retinotectal explant coculture: cell death in retinal explants and retinal axon growth into tectal slices. The assay is classed as cell-based, mouse. The procedure: Brains were dissected into ice-cold Gey's balanced salt solution enriched with glucose. […] Retinal explants were abutted against tectal slices. Tissues were placed on the microporous membrane of Millicell wells (Millipore) and maintained in NeuralBasal medium supplemented with B27 (GIBCO Inc., New York) at 37° C. for five days. To exclude the possibility that tectal tissues from mutant mice may affect axonal growth of RGCs, a series of parallel experiments were perforemd in which one retinal explant of each mouse was confronted with the tectum from the same mouse, while the second retinal explant was placed against the tectum from another mouse. With this arrangement, retinal explants from each animal had the possibility of being cocultured with the tectum from a wild-type, heterozygous, or homozygous animal. The number of regenerating axons was sampled by applying the lipophilic carbocyanine fluorescent label, DiI, in crystals to fixed retinal explants. The cocultures were stored in fixative for two-four weeks to allow diffusion of the dye, and labeled retinal axons were viewed with a fluorescence microscope (Nikon).
as §1
The effect of the ICE inhibitor was also tested in the explant coculture system with tissue prepared from wild-type P2 mice.

As to `CC(C)[C@H](NC(=O)OCc1ccccc1)C(=O)N[C@@H](C)C(=O)N[C@@H](CC(=O)O)C(=O)CF` [ZVAD, Z-Val-Ala-Asp-CH2F] (HELM PEPTIDE1{[O=C(OCc1ccccc1)[*:2]].V.A.D.[FC[*:1]]}$$$$V2.0), the “neurite outgrowth of labeled RGCs in dissociated culture” value in assay [1] (ZVAD-treated RGCs from wild-type P2 animals, no neurotrophic factors added, n=36) is “round and devoid of neurites”. The “RGC death in dissociated retinal cell culture” value in assay [1] (retinae of P2 pups, ZVAD at a concentration of 10 mM or above, after 2 days in culture) is on record as “effectively reduced RGC death”. Further, the “ability to promote axonal growth” value with retinal explants (RGCs) (overall conclusion of the ZVAD experiments) is recorded as “not sufficient to promote axonal growth; also recorded: not sufficient to support axonal growth”. In the assay on retinal explants (RGCs) (wild-type P2 mice), the “protection of cells from death in retinal explants compared with bcl-2 transgenic mouse” value was “protected cells from death almost as well as bcl-2”. The “number of growing retinal axons with increasing concentration of ZVAD” value in the assay on retinal explants (RGCs) (wild-type P2 mice, ZVAD 50, 100, 200 µM) is “did not change significantly”. Further, the “extent of cell death in retinal explants” value with retinal explants (RGCs) (wild-type P2 mice, ZVAD 50, 100, 200 µM, SYTOX green dead cell stain) is recorded as “reduced the extent of cell death; also recorded: number of dying cells in retinal explants decreased”. Besides, the “number of axons that invaded tectal slices, ZVAD-treated wild-type cultures versus bcl-2 transgenic mice” value in the assay with retinal explants (RGCs) (wild-type P2 mice, fold less than bcl-2 transgenic) is given as 10 fold.

Source of the values: US20050209140A1, “Methods of controlling axonal growth” (MASSACHUSETTS INSTITUTE OF TECHNOLOGY, priority 1996, published 2005).
